# Reference: patent US20230000863A1, “COMPOSITION CONTAINING AROMATIC HETEROCYCLIC COMPOUND IN AMORPHOUS FORM, AND PREPARATION METHOD THEREFOR AND USE THEREOF” (SHENZHEN CHIPSCREEN BIOSCIENCES CO., LTD., priority 2019, published 2023)
# Columns and labels:
# Assay type in all cases: in vivo
# [1] = Pharmacokinetic test of pharmaceutical preparations in rats; conditions: both sexes, rat, po, fasted, gavage, 20 mg/kg of compound of Formula (1), LC-MS/MS
# Excerpt: Thirty healthy rats were selected and randomly divided into 5 groups, 6 rats (3 females, 3 males) per group, which were respectively the groups of the compound of Formula (1), the capsules of Formulation Example 1, the granules of Formulation Example 4, the tablets of Formulation Example 7, and the soft capsules of Formulation Example 10. During the experiment, the rats were fasted overnight before administration, and blood was collected from the orbit before administration, and the plasma was separated, which was taken as the blood concentration sample at 0 h. The gavage solutions were prepared by dispersing with purified water, the concentration of the gavage solutions was 2 mg/ml, and each rat was administered with the compound of Formula (1) at a dose of 20 mg/kg respectively. After administration, blood samples were collected at 15 min, 0.5 h, 1 h, 2 h, 4 h, 6 h, and 8 h, and each sample was collected about 0.5 ml, anticoagulated with heparin sodium, placed on ice after collection, and centrifuged within 1 hour to separate plasma, which was stored at −80° C. for later test. The drug concentration in plasma was measured by LC-MS/MS.
# [2] = Pharmacokinetic test of compositions containing the compound of Formula (1) in rats; conditions: rat, po, fasted, gavage, 20 mg/kg of compound of Formula (1), LC-MS/MS
# Method: Twenty-four healthy rats were selected and randomly divided into 4 groups, 6 rats per group, which were respectively compound of Formula (1), Example 3, Example 4 and Example 7. During the experiment, the rats were fasted overnight before administration, and blood was collected from the orbit before administration, and the plasma was separated, which was taken as the blood concentration sample at 0 h. The gavage solutions were prepared by dispersion with purified water, the concentration of the gavage solutions was 2 mg/ml, and each rat was administered with the compound of Formula (1) at a dose of 20 mg/kg, respectively. After administration, blood samples were collected at 15 min, 0.5 h, 1 h, 2 h, 4 h, 6 h, and 8 h, and each sample was collected about 0.5 ml, anticoagulated with heparin sodium, placed on ice after collection, and centrifuged within 1 hour to separate plasma, which was stored at −80° C. for later test. The drug concentration in plasma was measured by LC-MS/MS.
# [3] = Pharmacokinetic test of pharmaceutical preparations in beagle dogs; conditions: po, fasted, gavage, 100 mg of compound of Formula (1) per dog, LC-MS/MS
# Method: Nine healthy beagle dogs were selected, which were divided into the group of the compound of Formula (1), capsules of Formulation Example 1, and capsules of Formulation Example 11. During the experiment, the beagle dogs were fasted overnight before administration, and venous blood was collected before administration, and plasma was separated as the blood drug concentration sample at […]. Each beagle dog was administrated by gavage at a dose of 100 mg of the compound of Formula (1), respectively. After administration, blood samples were collected at 15 min, 0.5 h, 1 h, 2 h, 4 h, 8 h, and 24 h respectively. Each sample was collected about 0.5 ml, anticoagulated with heparin sodium, placed on ice after collection, and centrifuged within 1 hour to separate plasma, the drug concentration in plasma was measured by LC-MS/MS.
smiles,measurement,setting,value
C=CC(=O)N(C)c1cc(Nc2ncc(Cl)c(NCCCNC(=O)c3ccc(C#N)cc3)n2)ccc1F [Compound of Formula (1)],AUC(0-t),[1]; plasma 0-8 h,235 ng·h/mL
same,Cmax,[1]; plasma,243 ng/mL
same,AUC(0-t),[2]; plasma 0-8 h,235 ng·h/mL
same,Cmax,[2]; plasma,243 ng/mL
same,AUC(0-t),[3]; plasma 0-24 h,30 ng·h/mL
same,Cmax,[3]; plasma,22 ng/mL
same,half-life,[3]; plasma,24 min
